In patent publication US20090170838A1, “Bicycloheteroaryl compounds as P2X7 modulators and uses thereof” (Renovis, Inc., priority 2005, published 2009):

What follows are compounds tested against T1, P2X7 receptor (Homo sapiens, UniProt Q99572) (assay: IL-1β release assay (BzATP-stimulated, LPS/IFN-γ differentiated THP-1 cells, ELISA)). Conditions: at 0.1 μM (asterisk symbols).
T1 construct: host or cells: THP-1 cells differentiated with LPS and IFN-γ
T1 sequence (Q99572 1-595): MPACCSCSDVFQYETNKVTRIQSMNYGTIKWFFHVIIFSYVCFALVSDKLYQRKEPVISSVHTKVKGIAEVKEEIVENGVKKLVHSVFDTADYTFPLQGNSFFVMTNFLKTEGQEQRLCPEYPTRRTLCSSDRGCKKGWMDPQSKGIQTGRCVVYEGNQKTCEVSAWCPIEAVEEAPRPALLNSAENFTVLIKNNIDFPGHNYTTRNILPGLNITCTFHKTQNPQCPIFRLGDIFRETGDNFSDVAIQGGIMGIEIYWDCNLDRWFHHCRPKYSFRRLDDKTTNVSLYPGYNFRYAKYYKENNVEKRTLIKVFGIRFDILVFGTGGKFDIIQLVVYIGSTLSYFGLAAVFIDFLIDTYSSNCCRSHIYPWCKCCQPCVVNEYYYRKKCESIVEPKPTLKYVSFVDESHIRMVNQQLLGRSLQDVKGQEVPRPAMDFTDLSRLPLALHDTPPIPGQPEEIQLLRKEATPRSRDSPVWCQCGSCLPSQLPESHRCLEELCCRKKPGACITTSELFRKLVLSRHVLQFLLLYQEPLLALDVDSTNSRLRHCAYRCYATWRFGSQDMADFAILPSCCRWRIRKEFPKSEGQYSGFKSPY
Type: cell-based
Procedure: THP-1 cells (ATCC Cat # 285-IF-100) are plated in 96 well plates at a concentration of 200,000 cells per well and allowed to differentiate in RPMI-1640 media (ATCC Cat # 30-2001) containing 10% FBS, 100 IU/mL penicillin, 100 ug/mL streptomycin, 100 ng/mL LPS and 100 ng/mL IFN-γ for 16 hours. Following differentiation, the cells are treated for an additional 2 hours in RPMI-1640 media containing 100 IU/mL penicillin, 100 ug/mL streptomycin and fresh LPS at 100 ng/mL. The cells are then pretreated for 30 minutes with the compound of interest at the appropriate concentration in RPMI media containing 100 IU/mL penicillin, 100 ug/mL streptomycin. Following the pretreatment 2′,3′-O-(4-benzoylbenzoyl)-adenosine 5′-triphosphate (Sigma Aldrich Cat# B6396) is added to a final concentration of 250 uM and the cells incubated for an additional 45 minutes. 30 uL of cell supernatant is then collected and […] levels determined via ELISA (R&D systems Cat. # HSLB50) according to manufacturer's recommendations using the Tecan Safire plate reader. Background adjusted IL-1β levels of drug treated and non-treated cells are used to calculate the percent inhibition.

inhibition at 0.1 µM | Compound
≥ 75% | O=C(CC12CC3CC(CC(C3)C1)C2)Nc1cccc2c1CCNC2=O [Compound 874]
≥ 75% | CCN1CCCC1CN1CCc2c(NC(=O)CC34CC5CC(CC(C5)C3)C4)cccc2C1=O (stereo not drawn) [Compound 834]
≥ 75% | CC(C)Cn1ccc2c(NC(=O)CC34CC5CC(CC(C5)C3)C4)cccc2c1=O [Compound 871]
≥ 75% | O=C(CC12CC3CC(CC(C3)C1)C2)Nc1cccc2c1CCN(CC1COCCO1)C2=O (stereo not drawn) [Compound 796]
≥ 75% | O=C(CC12CC3CC(CC(C3)C1)C2)Nc1cccc2c(=O)n(CCCN3CCOCC3)ccc12 [Compound 781]
50 to 75% | CC12CC3CC(C)(C1)CC(CC(=O)Nc1cccc4c(=O)n(CC5COCCO5)ccc14)(C3)C2 (stereo not drawn) [Compound 762]
≥ 75% | CC(C)(C)OC(=O)N1CCCC1CN1CCc2c(NC(=O)CC34CC5CC(CC(C5)C3)C4)cccc2C1=O (stereo not drawn) [Compound 857]
≥ 75% | O=C(CC12CC3CC(CC(C3)C1)C2)Nc1cccc2c1CCN(CCCN1CCOCC1)C2=O [Compound 876]
50 to 75% | CN(C)CCN1CCc2c(NC(=O)CC34CC5CC(CC(C5)C3)C4)cccc2C1=O [Compound 800]
≥ 75% | O=C(CC12CC3CC(CC(C3)C1)C2)Nc1cccc2c(=O)n(CCCN3CCCC3)ccc12 [Compound 789]
≥ 75% | CC12CC3CC(C)(C1)CC(CC(=O)Nc1cccc4c(=O)n(Cc5ccc(F)cc5)ccc14)(C3)C2 [Compound 754]
≥ 75% | O=C(CC12CC3CC(CC(C3)C1)C2)Nc1cccc2c1CCN(CCCN1CCCC1)C2=O [Compound 880]
≥ 75% | CC12CC3CC(C)(C1)CC(CC(=O)Nc1cccc4c1CCN(Cc1c(F)cccc1F)C4=O)(C3)C2 [Compound 840]
≥ 75% | NC(=O)[C@H](Cc1c[nH]cn1)n1ccc2c(NC(=O)CC34CC5CC(CC(C5)C3)C4)cccc2c1=O [Compound 882]
≥ 75% | CN1CCN(CCN2CCc3c(NC(=O)CC45CC6CC(CC(C6)C4)C5)cccc3C2=O)CC1 [Compound 842]
25 to 50% | O=C(Nc1cccc2c(=O)n(Cc3ccccc3)ccc12)C12CC3CC(CC(F)(C3)C1)C2 [Compound 816, 3-Fluoro-Adamantan-1-yl-N-(2-benzyl-1-oxo-1,2-dihydro-isoquinolin-5-yl)-formamide]
50 to 75% | Cc1cc(Cn2ccc3c(NC(=O)CC45CC6CC(C)(CC(C)(C6)C4)C5)cccc3c2=O)no1 [Compound 761]
50 to 75% | CS(=O)(=O)c1ccc(Cn2ccc3c(NC(=O)CC45CC6CC(CC(C6)C4)C5)cccc3c2=O)cc1 [Compound 768]
≥ 75% | O=C(CC12CC3CC(CC(C3)C1)C2)Nc1cccc2c(=O)n(CCN3CCCC3)ccc12 [Compound 783]
25 to 50% | CC12CC3CC(C)(C1)CC(CC(=O)Nc1cccc4c1CCN(Cc1ccc(F)cc1F)C4=O)(C3)C2 [Compound 765]
50 to 75% | O=C(CC12CC3CC(CC(C3)C1)C2)Nc1cccc2c(=O)n(CCCn3ccnc3)ccc12 [Compound 824]
≥ 75% | CC12CC3CC(C)(C1)CC(CC(=O)Nc1cccc4c(=O)n(CC5CCOCC5)ccc14)(C3)C2 [Compound 820]
≥ 75% | O=C(CC12CC3CC(CC(C3)C1)C2)Nc1cccc2c1CCN(CCN1CCOCC1)C2=O [Compound 817]

More lines, now with the values behind:

Compound | inhibition at 0.1 µM
O=C(CC12CC3CC(CC(C3)C1)C2)Nc1cccc2c(=O)n(Cc3ccc4c(c3)OCO4)ccc12 [Compound 779] | ≥ 75%
O=C(CC12CC3CC(CC(C3)C1)C2)Nc1cccc2c1CCN(Cc1ccc(F)c(F)c1)C2=O [Compound 799] | ≥ 75%
O=C(CC12CC3CC(CC(C3)C1)C2)Nc1cccc2c(=O)n(Cc3cn4ccccc4n3)ccc12 [Compound 770] | ≥ 75%
CC12CC3CC(C)(C1)CC(CC(=O)Nc1cccc4c(=O)n(Cc5ccc(F)c(F)c5)ccc14)(C3)C2 [Compound 819] | 50 to 75%
O=C(CC12CC3CC(CC(C3)C1)C2)Nc1cccc2c(=O)n(Cc3ccoc3)ccc12 [Compound 873] | ≥ 75%
O=C(CC12CC3CC(CC(C3)C1)C2)Nc1cccc2c(=O)n(CC3CCCN3)ccc12 (stereo not drawn) [Compound 809] | ≥ 75%
CC(C)C(CO)n1ccc2c(NC(=O)CC34CC5CC(CC(C5)C3)C4)cccc2c1=O (stereo not drawn) [Compound 887] | ≥ 75%
CC12CC3CC(C)(C1)CC(CC(=O)Nc1cccc4c(=O)n(CC5COc6ccccc6O5)ccc14)(C3)C2 (stereo not drawn) [Compound 766] | 50 to 75%
CC(C)(CN1CCOCC1)N1CCc2c(NC(=O)CC34CC5CC(CC(C5)C3)C4)cccc2C1=O [Compound 843] | ≥ 75%
CC12CC3CC(C)(C1)CC(CC(=O)Nc1cccc4c1CCN(Cc1ccccc1F)C4=O)(C3)C2 [Compound 839] | 50 to 75%
O=C(CC12CC3CC(CC(C3)C1)C2)Nc1cccc2c(=O)n(CCc3ccccn3)ccc12 [Compound 785] | 50 to 75%
CC12CC3CC(C)(C1)CC(CC(=O)Nc1cccc4c(=O)n(Cc5ccc(S(C)(=O)=O)cc5)ccc14)(C3)C2 [Compound 759] | 50 to 75%
CC12CC3CC(C)(C1)CC(CC(=O)Nc1cccc4c(=O)n(Cc5ccco5)ccc14)(C3)C2 [Compound 760] | 25 to 50%
NC(=O)[C@@H](CC1CCCCC1)n1ccc2c(NC(=O)CC34CC5CC(CC(C5)C3)C4)cccc2c1=O [Compound 881] | ≥ 75%
O=C(CC12CC3CC(CC(C3)C1)C2)Nc1cccc2c(=O)n(C(CO)CO)ccc12 [Compound 826] | ≥ 75%
O=C(CC12CC3CC(CC(C3)C1)C2)Nc1cccc2c(=O)n(CCc3cccnc3)ccc12 [Compound 782] | ≥ 75%
CN1CCN(CCCN2CCc3c(NC(=O)CC45CC6CC(CC(C6)C4)C5)cccc3C2=O)CC1 [Compound 878] | ≥ 75%
CCN(CC)CCn1ccc2c(NC(=O)CC34CC5CC(CC(C5)C3)C4)cccc2c1=O [Compound 870] | ≥ 75%
Cc1cnc(Cn2ccc3c(NC(=O)CC45CC6CC(C)(CC(C)(C6)C4)C5)cccc3c2=O)cn1 [Compound 757] | ≥ 75%
CC12CC3CC(C)(C1)CC(CC(=O)Nc1cccc4c(=O)n(CCc5ccccn5)ccc14)(C3)C2 [Compound 752] | 50 to 75%

Same assay, conditions: at 0.3 μM (plus symbols)

inhibition at 0.3 µM | Compound
≥ 75% | O=C(CC12CC3CC(CC(C3)C1)C2)Nc1cccc2c(=O)n(Cc3c(F)cccc3F)ccc12 [Compound 733]
≥ 75% | O=C(CC12CC3CC(CC(C3)C1)C2)Nc1cccc2c(=O)n(CC3CCNCC3)ccc12 [Compound 749]
≥ 75% | O=C(CC12CC3CC(CC(C3)C1)C2)Nc1cccc2c(=O)n(Cc3ccccc3F)ccc12 [Compound 706]
≥ 75% | O=C(CC12CC3CC(CC(C3)C1)C2)Nc1cccc2c(=O)n(CC3COc4ccccc4O3)ccc12 (stereo not drawn) [Compound 734]
≥ 75% | O=C(CC12CC3CC(CC(C3)C1)C2)Nc1cccc2c(=O)n(Cc3ccco3)ccc12 [Compound 712]
≥ 75% | O=C(CC12CC3CC(CC(C3)C1)C2)Nc1cccc2c(=O)n(Cc3ccccc3)ccc12 [Compound 701, 2-adamantan-1-yl-N-(2-benzyl-1-oxo-1,2-dihydro-isoquinolin-5-yl)-acetamide]
≥ 75% | CC12CC3CC(C)(C1)CC(CC(=O)Nc1cccc4c(=O)n(CC5CCNCC5)ccc14)(C3)C2 [Compound 890]
≥ 75% | CC12CC3CC(C)(C1)CC(CC(=O)Nc1cccc4c(=O)n(CCCN5CCOCC5)ccc14)(C3)C2 [Compound 892]
≥ 75% | O=C(CC12CC3CC(CC(C3)C1)C2)Nc1cccc2c(=O)n(Cc3ccc(C(F)(F)F)cc3)ccc12 [Compound 713]

Further lines, the compound ahead of its results:

Compound | inhibition at 0.3 µM
Cc1cnc(Cn2ccc3c(NC(=O)CC45CC6CC(CC(C6)C4)C5)cccc3c2=O)cn1 [Compound 710] | ≥ 75%
Cc1nn(-c2ccccc2)nc1Cn1ccc2c(NC(=O)CC34CC5CC(CC(C5)C3)C4)cccc2c1=O [Compound 738] | ≥ 75%
CC(C)(C)OC(=O)N1CCC(Cn2ccc3c(NC(=O)CC45CC6CC(CC(C6)C4)C5)cccc3c2=O)CC1 [Compound 748] | ≥ 75%
Cc1cc(Cn2ccc3c(NC(=O)CC45CC6CC(CC(C6)C4)C5)cccc3c2=O)no1 [Compound 737] | ≥ 75%
O=C(CC12CC3CC(CC(C3)C1)C2)Nc1cccc2c(=O)n(Cc3ccccc3Cl)ccc12 [Compound 708] | ≥ 75%
